According to patent US20260091015A1, “TREATING IRON DEFICIENCY WITH FERRIC CARBOXYMALTOSE” (PHARMACOSMOS HOLDING A/S, priority 2018, published 2026):

Tests used:
PTH = test: Intact PTH sandwich immunoassay, trials IDA-04/IDA-05; format: in vivo, human; conditions: IDA-04 and IDA-05 combined
Text: The term “serum parathyroid hormone (PTH)” as used herein refers to the level of serum parathyroid hormone in blood serum as measured using a two-site sandwich immunoassay using direct chemiluminometric technology, which used constant amounts of two anti-human PTH antibodies. PTH, produced by the parathyroid gland, is the major circulating factor regulating extracellular calcium concentration. Abnormally low ionized calcium concentrations trigger the secretion of PTH. The PTH molecules bind to type 1 PTH receptors in target tissues and initiate a sequence of reactions that results in an increase in extracellular calcium concentrations. PTH stimulates osteoclastic bone resorption resulting in the release of calcium from bone. […]
The following safety laboratory assessments were analysed: • S-phosphate: inorganic phosphorous forms an ammonium phosphomolybdate complex having the formula (NH4)3[PO4](MoO3)12 with ammonium molybdate in the presence of sulfuric acid. The complex was determined photometrically in the ultraviolet region (340 nm) of the spectrum using the Roche Modular and Cobas Analyzer. • iFGF23 and cFGF23: the human intact FGF23 was measured by the 2nd generation Elisa kit manufactured by Immonotropics, Inc, San Clemente, CA. […] The human C-terminal FGF23 was measured by the Elisa kit manufactured by Immonotropics, Inc, San Clemente, CA. […]

[1] = cited from earlier work
[2] = compared to iron dextran, iron sucrose and iron isomaltoside 1000

Substance: ferric carboxymaltose [FCM]
- PTH (PTH): increase
- risk for iFGF23-mediated reduction of serum phosphate levels and development of hypophosphatemia ([1]; clinical trials and case reports, Wolf et al., 2013): highest risk
- time to minimum serum phosphorous values ([1]; clinical trials, EU SmPC): approximately 2 weeks
- prevalence of hypophosphatemia [1, 2]: higher prevalence
- reduction in serum phosphate [1, 2]: larger and longer reduction
- time until serum phosphorous returned to within the range of baseline ([1]; following treatment, clinical trials, EU SmPC): 4 to 12 weeks
- serum phosphate ([1]; women with IDA secondary to heavy uterine bleeding, Wolf et al., 2013): reduced
